Measurements as given in article PMC6138237, “Machine intelligence decrypts β-lapachone as an allosteric 5-lipoxygenase inhibitor” (Chemical Science, 2018).
Where two headings read alike, the source gives them in different places.

What was measured:
Akt1/PKBα = Akt1/PKBα (Homo sapiens, UniProt P31749); test: ExpresS Diversity Kinase Profile, Cerep (LANCE): Akt1/PKBα; assay type: biochemical; details: for inhibition at 150 µM: Akt1/PKBα, Flag: Interference
AurA = target: T1, AurA (Homo sapiens, UniProt O14965); test: ExpresS Diversity Kinase Profile, Cerep (LANCE): AurA; assay type: biochemical
T1 sequence (O14965 1-403): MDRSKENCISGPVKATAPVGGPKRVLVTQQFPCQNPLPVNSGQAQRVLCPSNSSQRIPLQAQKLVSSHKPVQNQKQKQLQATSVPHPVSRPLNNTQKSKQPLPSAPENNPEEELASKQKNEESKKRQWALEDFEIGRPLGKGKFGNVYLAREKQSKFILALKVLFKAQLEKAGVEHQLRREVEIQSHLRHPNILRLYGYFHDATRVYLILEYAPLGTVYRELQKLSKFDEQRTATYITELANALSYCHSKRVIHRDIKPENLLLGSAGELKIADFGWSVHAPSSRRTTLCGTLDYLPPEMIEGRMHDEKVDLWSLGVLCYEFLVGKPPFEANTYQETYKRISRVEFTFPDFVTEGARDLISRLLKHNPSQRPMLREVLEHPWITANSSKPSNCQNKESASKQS

MARK1 = MARK1 (Homo sapiens, UniProt Q9P0L2); test: ExpresS Diversity Kinase Profile, Cerep (LANCE): MARK1; assay type: biochemical
CHK1 = target: T2, CHK1 (Homo sapiens, UniProt O14757); test: ExpresS Diversity Kinase Profile, Cerep (LANCE): CHK1; assay type: biochemical
T2 sequence (O14757 1-476): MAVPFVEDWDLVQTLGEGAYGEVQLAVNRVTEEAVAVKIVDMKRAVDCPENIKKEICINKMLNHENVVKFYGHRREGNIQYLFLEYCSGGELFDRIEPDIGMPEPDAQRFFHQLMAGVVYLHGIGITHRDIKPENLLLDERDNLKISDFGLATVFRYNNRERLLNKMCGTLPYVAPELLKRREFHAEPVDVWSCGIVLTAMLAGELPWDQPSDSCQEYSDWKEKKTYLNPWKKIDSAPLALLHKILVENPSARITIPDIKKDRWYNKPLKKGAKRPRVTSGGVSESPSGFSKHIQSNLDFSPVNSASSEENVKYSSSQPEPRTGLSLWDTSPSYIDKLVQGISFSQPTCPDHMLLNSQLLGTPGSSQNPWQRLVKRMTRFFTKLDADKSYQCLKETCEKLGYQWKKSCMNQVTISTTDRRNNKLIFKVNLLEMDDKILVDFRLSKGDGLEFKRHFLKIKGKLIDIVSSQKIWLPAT

JNK1 = JNK1 (Homo sapiens, UniProt P45983); test: ExpresS Diversity Kinase Profile, Cerep (LANCE): JNK1; assay type: biochemical
VEGFR2 = VEGFR2 (Homo sapiens, UniProt P35968); test: ExpresS Diversity Kinase Profile, Cerep (LANCE): VEGFR2; assay type: biochemical
IRAK4 = target: T3, IRAK4 (Homo sapiens, UniProt Q9NWZ3); test: ExpresS Diversity Kinase Profile, Cerep (LANCE): IRAK4; assay type: biochemical
T3 sequence (Q9NWZ3 1-460): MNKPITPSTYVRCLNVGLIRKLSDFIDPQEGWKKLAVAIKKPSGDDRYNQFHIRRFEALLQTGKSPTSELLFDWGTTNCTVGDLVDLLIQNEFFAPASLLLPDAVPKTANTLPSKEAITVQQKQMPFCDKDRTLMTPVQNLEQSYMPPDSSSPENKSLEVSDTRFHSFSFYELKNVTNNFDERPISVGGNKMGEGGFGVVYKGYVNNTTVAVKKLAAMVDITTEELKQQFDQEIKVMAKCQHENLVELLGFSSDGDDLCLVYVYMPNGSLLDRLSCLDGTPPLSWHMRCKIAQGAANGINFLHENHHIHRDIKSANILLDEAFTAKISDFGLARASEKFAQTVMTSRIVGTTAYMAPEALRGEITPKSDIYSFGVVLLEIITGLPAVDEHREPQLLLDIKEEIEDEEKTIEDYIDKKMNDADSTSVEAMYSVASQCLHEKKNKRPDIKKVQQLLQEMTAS

CDK2 = CDK2 (Homo sapiens, UniProt P24941); test: ExpresS Diversity Kinase Profile, Cerep (LANCE): CDK2; assay type: biochemical
TRPM8 [1] = target: T4, TRPM8 (Homo sapiens, UniProt Q7Z2W7); test: TRPM8 functional antagonist assay, Cerep (icilin 100 nM); assay type: cell-based
T4 construct: Cerep, SA (fee-for-service assay) printed G018533 (citation number 33 glued on)

TRPM8 [2] = target: T4, TRPM8; test: TRPM8 functional agonist assay, Cerep (intracellular Ca2+); assay type: cell-based; details: TRPM8 (agonist), 150 µM
EP3 = target: T5, EP3 (Homo sapiens, UniProt P43115); test: EP3 functional antagonist assay, Cerep (sulprostone 0.1 nM, impedance)
T5 sequence (P43115 1-390): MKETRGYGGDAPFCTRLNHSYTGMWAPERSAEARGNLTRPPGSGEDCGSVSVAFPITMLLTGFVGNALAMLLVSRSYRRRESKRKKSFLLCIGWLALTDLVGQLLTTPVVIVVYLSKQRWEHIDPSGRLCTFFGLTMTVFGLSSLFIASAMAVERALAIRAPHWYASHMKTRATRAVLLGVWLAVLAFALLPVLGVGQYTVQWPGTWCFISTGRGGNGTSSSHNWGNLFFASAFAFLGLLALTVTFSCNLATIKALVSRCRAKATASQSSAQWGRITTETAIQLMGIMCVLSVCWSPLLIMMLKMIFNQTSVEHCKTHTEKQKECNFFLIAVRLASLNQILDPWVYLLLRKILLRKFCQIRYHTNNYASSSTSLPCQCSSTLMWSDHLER

TRPV1 = TRPV1 (Homo sapiens, UniProt Q8NER1); test: TRPV1 functional antagonist assay, Cerep (capsaicin 30 nM); assay type: cell-based
FGFR2 = FGFR2 (Homo sapiens, UniProt P21802); test: ExpresS Diversity Kinase Profile, Cerep (LANCE): FGFR2; assay type: biochemical
EGFR = EGFR (Homo sapiens, UniProt P00533); test: ExpresS Diversity Kinase Profile, Cerep (LANCE): EGFR; assay type: biochemical
[3] = read-out: % Inhibition of control values, 1st measurement
[4] = read-out: % Inhibition of control values, 2nd measurement
[5] = n = 2, read-out: % Inhibition of control values, Mean
[6] = Flag: Interference, read-out: % Inhibition of control values, 1st measurement
[7] = Flag: Interference, read-out: % Inhibition of control values, 2nd measurement
[8] = n = 2, Flag: Interference, read-out: % Inhibition of control values, Mean

EGFR, sequence (P00533 25-1210): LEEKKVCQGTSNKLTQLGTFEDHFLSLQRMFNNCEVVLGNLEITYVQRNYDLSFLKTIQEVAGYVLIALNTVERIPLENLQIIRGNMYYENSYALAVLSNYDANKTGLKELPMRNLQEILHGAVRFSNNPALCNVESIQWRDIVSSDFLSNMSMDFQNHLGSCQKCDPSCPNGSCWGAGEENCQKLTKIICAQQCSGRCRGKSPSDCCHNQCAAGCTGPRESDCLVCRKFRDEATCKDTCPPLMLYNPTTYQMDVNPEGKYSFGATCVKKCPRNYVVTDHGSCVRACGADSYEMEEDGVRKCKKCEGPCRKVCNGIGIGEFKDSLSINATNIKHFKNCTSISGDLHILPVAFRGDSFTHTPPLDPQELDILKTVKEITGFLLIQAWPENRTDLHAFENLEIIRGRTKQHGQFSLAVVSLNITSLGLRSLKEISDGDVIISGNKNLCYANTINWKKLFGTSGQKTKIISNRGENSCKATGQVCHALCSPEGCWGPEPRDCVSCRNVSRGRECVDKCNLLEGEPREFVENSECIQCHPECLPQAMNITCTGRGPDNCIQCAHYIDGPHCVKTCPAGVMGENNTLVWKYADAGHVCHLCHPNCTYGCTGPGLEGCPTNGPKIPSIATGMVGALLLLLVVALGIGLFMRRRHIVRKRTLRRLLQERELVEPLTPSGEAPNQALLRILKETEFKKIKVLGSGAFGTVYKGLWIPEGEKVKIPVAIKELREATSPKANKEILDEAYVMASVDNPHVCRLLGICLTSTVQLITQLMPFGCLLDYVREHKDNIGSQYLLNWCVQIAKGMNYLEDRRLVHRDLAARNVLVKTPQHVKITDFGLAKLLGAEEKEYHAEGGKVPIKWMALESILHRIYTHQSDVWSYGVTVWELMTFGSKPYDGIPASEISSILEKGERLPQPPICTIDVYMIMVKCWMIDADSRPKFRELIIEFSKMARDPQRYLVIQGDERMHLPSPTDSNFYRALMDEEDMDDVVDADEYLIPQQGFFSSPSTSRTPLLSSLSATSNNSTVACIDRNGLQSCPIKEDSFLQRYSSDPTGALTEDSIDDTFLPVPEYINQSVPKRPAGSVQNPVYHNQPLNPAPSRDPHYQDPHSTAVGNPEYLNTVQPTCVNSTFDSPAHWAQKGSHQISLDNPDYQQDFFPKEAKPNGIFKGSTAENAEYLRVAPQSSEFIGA
JNK1, sequence (P45983 whole entry): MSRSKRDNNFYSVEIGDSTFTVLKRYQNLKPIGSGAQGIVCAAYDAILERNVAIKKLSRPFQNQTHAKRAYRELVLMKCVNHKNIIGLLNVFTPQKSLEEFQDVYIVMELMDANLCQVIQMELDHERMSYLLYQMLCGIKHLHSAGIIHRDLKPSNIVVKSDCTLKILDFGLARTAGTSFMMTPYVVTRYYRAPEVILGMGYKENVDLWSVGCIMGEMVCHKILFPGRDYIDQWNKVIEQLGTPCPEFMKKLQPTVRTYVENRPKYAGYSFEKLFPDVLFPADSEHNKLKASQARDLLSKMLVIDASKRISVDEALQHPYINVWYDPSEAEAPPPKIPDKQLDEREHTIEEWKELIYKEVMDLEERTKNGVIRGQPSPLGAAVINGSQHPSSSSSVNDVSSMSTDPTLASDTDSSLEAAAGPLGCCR
MARK1, sequence (Q9P0L2 whole entry): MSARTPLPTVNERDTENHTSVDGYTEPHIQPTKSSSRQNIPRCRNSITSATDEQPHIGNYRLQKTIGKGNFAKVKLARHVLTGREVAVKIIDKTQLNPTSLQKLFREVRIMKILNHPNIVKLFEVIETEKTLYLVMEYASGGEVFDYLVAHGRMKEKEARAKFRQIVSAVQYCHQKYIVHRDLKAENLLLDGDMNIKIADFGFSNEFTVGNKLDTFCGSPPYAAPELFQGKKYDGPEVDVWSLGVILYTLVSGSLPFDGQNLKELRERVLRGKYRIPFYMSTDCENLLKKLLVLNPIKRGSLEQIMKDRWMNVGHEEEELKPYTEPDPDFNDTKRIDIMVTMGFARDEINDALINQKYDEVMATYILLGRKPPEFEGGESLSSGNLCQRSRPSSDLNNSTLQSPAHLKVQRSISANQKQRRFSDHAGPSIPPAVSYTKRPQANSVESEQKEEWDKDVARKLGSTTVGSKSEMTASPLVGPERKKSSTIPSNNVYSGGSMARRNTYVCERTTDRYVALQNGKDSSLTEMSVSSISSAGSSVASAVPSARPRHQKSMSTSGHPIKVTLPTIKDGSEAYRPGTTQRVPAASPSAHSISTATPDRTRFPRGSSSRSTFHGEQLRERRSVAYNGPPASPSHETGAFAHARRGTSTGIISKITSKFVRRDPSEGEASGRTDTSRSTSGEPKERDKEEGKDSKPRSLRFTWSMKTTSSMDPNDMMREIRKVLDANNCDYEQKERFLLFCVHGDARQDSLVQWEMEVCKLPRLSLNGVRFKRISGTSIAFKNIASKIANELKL
T4 sequence (Q7Z2W7 whole entry): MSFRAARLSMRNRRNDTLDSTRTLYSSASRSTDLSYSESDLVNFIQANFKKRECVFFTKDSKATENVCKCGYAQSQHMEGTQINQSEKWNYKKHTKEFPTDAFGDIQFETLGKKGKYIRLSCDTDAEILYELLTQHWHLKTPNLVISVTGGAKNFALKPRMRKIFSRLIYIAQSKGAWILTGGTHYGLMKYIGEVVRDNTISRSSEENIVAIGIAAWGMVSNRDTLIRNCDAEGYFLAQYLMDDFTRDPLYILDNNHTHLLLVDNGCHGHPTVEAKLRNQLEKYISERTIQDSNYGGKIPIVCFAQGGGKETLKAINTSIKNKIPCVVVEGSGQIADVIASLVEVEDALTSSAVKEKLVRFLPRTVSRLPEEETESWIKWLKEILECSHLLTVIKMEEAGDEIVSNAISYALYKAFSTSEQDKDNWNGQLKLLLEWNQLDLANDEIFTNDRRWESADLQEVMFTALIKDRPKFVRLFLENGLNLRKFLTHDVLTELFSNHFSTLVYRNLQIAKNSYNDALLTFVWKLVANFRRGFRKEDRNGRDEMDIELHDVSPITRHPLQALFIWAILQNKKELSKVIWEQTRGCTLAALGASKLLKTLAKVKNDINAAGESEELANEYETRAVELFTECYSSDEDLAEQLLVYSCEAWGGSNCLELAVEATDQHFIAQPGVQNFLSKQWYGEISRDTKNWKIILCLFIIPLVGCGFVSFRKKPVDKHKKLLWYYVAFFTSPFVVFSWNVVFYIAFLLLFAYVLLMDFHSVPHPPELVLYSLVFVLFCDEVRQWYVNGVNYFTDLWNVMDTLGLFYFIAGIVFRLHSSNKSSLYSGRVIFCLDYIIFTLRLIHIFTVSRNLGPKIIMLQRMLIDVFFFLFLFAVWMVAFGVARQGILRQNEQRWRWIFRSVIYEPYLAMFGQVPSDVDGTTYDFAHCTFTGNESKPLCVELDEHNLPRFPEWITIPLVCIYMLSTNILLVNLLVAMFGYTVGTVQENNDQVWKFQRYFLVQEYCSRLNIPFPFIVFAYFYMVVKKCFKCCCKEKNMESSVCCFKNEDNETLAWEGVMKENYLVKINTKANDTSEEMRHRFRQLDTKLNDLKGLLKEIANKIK
Akt1/PKBα, sequence (P31749 whole entry): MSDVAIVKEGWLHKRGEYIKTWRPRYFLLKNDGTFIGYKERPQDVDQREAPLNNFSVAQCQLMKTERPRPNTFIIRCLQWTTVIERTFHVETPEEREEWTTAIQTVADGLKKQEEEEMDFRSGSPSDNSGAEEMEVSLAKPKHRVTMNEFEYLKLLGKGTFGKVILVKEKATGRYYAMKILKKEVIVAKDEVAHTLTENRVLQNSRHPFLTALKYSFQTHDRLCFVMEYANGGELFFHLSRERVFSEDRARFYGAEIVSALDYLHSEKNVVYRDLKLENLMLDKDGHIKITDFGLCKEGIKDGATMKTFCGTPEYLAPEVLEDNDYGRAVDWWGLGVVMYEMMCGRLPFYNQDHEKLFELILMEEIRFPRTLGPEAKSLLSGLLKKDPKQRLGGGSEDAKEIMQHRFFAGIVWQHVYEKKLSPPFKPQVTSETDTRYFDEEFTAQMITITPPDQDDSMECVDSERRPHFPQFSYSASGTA
FGFR2, sequence (P21802 22-821): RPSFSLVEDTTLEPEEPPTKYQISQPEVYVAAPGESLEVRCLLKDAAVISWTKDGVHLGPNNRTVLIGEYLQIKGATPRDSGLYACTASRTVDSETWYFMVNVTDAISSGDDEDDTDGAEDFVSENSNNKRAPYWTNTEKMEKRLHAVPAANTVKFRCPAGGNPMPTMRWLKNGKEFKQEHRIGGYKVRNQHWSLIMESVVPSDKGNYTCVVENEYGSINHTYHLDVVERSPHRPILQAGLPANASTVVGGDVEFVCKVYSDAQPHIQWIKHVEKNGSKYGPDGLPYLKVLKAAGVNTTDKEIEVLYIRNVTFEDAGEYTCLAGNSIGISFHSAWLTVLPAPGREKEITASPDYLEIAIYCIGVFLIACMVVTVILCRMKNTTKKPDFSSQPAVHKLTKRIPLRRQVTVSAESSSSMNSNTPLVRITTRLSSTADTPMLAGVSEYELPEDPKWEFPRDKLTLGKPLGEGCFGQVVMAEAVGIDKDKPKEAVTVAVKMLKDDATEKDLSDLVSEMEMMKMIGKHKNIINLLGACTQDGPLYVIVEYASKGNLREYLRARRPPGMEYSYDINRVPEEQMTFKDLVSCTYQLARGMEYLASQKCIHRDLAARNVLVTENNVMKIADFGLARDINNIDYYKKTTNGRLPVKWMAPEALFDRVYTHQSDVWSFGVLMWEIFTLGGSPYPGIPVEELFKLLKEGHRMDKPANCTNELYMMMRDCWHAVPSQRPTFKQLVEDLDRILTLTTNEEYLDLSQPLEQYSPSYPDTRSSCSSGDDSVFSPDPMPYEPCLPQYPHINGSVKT

CN[C@@H]1C[C@H]2O[C@@](C)([C@@H]1OC)n1c3ccccc3c3c4c(c5c6ccccc6n2c5c31)C(=O)NC4 [Staurosporine, reference compound]
nHill (Akt1/PKBα; Akt/PKBα, control): 0.8
nHill (AurA; control): 2.5
nHill (MARK1; control): 2.5
nHill (CHK1; control): 1.5
nHill (JNK1; control): 1.8
nHill (VEGFR2; control): 1.2
nHill (IRAK4; control): 0.7

CC1(C)CCC2=C(O1)c1ccccc1C(=O)C2=O [β-Lapachone]
inhibition at 150 µM (Akt1/PKBα; [3]): 65.8%
inhibition at 150 µM (Akt1/PKBα; [4]): 55%
inhibition at 150 µM (Akt1/PKBα; [5]): 60.4%
inhibition at 150 µM (CDK2; [5]): 78.2%
inhibition at 150 µM (CDK2; [3]): 79.4%
inhibition at 150 µM (CDK2; [4]): 77.1%
inhibition at 150 µM (AurA; [6]): -16.5%
inhibition at 150 µM (AurA; [7]): 0.2%
inhibition at 150 µM (AurA; [8]): -8.1%
inhibition at 150 µM (MARK1; [5]): -57.4%
inhibition at 150 µM (MARK1; [3]): -70.1%
inhibition at 150 µM (MARK1; [4]): -44.7%
inhibition at 150 µM (CHK1; [6]): 9.4%
inhibition at 150 µM (CHK1; [7]): 19.7%
inhibition at 150 µM (CHK1; [8]): 14.5%
IC50 (TRPM8 [1]): > 100 µM
inhibition at 150 µM (JNK1; [6]): 59.8%
inhibition at 150 µM (JNK1; [7]): 55.6%
inhibition at 150 µM (JNK1; [8]): 57.7%
remaining activity at 150 µM (TRPM8 [2]; n = 2, read-out: % of control values, Mean): -20.4%
remaining activity at 150 µM (TRPM8 [2]; read-out: % of control values, 1st measurement): -20.4%
remaining activity at 150 µM (TRPM8 [2]; read-out: % of control values, 2nd measurement): -20.4%
Kb (EP3): 22 µM
ligand efficiency (LE) (EP3; EP3): 0.36
IC50 (EP3; Experimental –log(IC50 or KD), EP3): 20 µM
IC50 (EP3; IC50, EP3 concentration–inhibition curve, n = 2): 63 µM
inhibition at 150 µM (VEGFR2; [5]): 82.3%
inhibition at 150 µM (VEGFR2; [3]): 82.7%
inhibition at 150 µM (VEGFR2; [4]): 82%
IC50 (TRPV1): ~100 µM
inhibition at 150 µM (IRAK4; [5]): 2.2%
inhibition at 150 µM (IRAK4; [3]): -1.2%
inhibition at 150 µM (IRAK4; [4]): 5.6%
inhibition at 150 µM (FGFR2; [6]): 44.8%
inhibition at 150 µM (FGFR2; [7]): 55.2%
inhibition at 150 µM (FGFR2; [8]): 50%
inhibition at 150 µM (EGFR; [5]): 67.1%
inhibition at 150 µM (EGFR; [3]): 68.5%
inhibition at 150 µM (EGFR; [4]): 65.7%
